The test system of experiment [1] is Phosphorylation of ERK1/2 in AsPC-1 cells. As to the kind of experiment: Phospho-ERK1/2 MSD Assay. Format: cell-based. On the procedure:
Sixteen hours prior to compound treatment, AsPC-1 cells were seeded in 96-well cell culture plates at a density of 25,000 cells/well and incubated at 37° C., 5% CO2. A compound dose-response titration was diluted in growth media, added to appropriate wells of a cell culture plate, and then incubated at 37° C., 5% CO2 for 2 hours.

Experiment [2] has as its target His-tagged KRAS G12D protein (Homo sapiens, UniProt P01116, G12D). As to the kind of experiment: biochemical.
Experimental: The plate was incubated for 30 minutes at room temperature. Biotinylated KRPep-2d substrate (Amgen) was diluted to nM in Assay Buffer and 2 μL was added to all wells and incubated for 1 hour at room temperature. Detection Reagent (0.4 nM LANCE Eu-W1024 Anti-6×His (Perkin Elmer AD0401), 5 nM streptavidin-d2 (Cisbio 610SADLA)) was prepared in Assay Buffer, then 4 µL was added to the plate and incubated for 1 hour at room temperature.
Where [3] appears, read: Homo sapiens, ASPC1, 2 h, read-out: 2 h p-ERK (AsPC-1 cells), IC50, AsPC-1 cells, 2 h compound treatment.
Where [4] appears, read: read-out: 2 h p-ERK (AsPC-1 cells), IC50, AsPC-1 cells, 2 h compound treatment.
[5] abbreviates: Homo sapiens, ASPC1, read-out: 2 h p-ERK (AsPC-1 cells), IC50, AsPC-1 cells, 2 h compound treatment.

Where two headings read alike, the source gives them in different places.

Sequence of His-tagged KRAS G12D protein (P01116 1-188 isoform P01116-2 G12D): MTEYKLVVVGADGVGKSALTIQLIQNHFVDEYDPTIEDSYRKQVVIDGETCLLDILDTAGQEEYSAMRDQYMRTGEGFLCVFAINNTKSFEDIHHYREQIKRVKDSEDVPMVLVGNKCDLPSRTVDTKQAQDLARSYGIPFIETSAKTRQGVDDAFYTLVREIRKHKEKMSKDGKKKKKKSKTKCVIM

As to `CCc1c(F)ccc2cc(O)cc(-c3ncc4c(N5CC(C)CC(O)C5)nc(OC[C@@]56CCCN5C[C@H](F)C6)nc4c3F)c12` (mixture of isomers) [Example 96, rac-(3R,5S)-1-(7-(8-Ethyl-7-fluoro-3-hydroxynaphthalen-1-yl)-8-fluoro-2-(((2R,7aS)-2-fluorotetrahydro-1H-pyrrolizin-7a(5H)-yl)methoxy)pyrido[4,3-d]pyrimidin-4-yl)-5-methylpiperidin-3-ol], the IC50 in experiment [1] (setting [3]) was determined as 0.119 µM; in experiment [2], 0.005 µM.

Take `CCc1c(F)ccc2cc(O)cc(-c3ncc4c(N5C[C@@H](O)C[C@@H](F)C5)nc(OC[C@@]56CCCN5C[C@H](F)C6)nc4c3F)c12` (mixture of isomers) [Example 115, rac-(3S,5R)-1-(7-(8-Ethyl-7-fluoro-3-hydroxynaphthalen-1-yl)-8-fluoro-2-(((2R,7aS)-2-fluorotetrahydro-1H-pyrrolizin-7a(5H)-yl)methoxy)pyrido[4,3-d]pyrimidin-4-yl)-5-fluoropiperidin-3-ol]: the IC50 came out at 0.083 µM in experiment [1] (setting [3]) and 0.003 µM in experiment [2].

In the case of `CCc1c(F)ccc2cc(O)cc(-c3ncc4c(N5C[C@@H](O)C[C@H](F)C5)nc(OC[C@@]56CCCN5C[C@H](F)C6)nc4c3F)c12` (racemic) [Example 116, rac-(35,5S)-1-(7-(8-Ethyl-7-fluoro-3-hydroxynaphthalen-1-yl)-8-fluoro-2-(((2R,7aS)-2-fluorotetrahydro-1H-pyrrolizin-7a(5H)-yl)methoxy)pyrido[4,3-d]pyrimidin-4-yl)-5-fluoropiperidin-3-ol], the half-inhibitory concentration (IC50) in experiment [1] (setting [3]) stood at 0.792 µM; in experiment [2], 0.004 µM.

Regarding `CCc1c(F)ccc2cc(O)cc(-c3ncc4c(N5CCC[C@H]6OCC[C@H]65)nc(OC[C@@]56CCCN5C[C@H](F)C6)nc4c3F)c12` (relative stereo) [Example 42, rel-5-Ethyl-6-fluoro-4-(8-fluoro-2-(((2R,7aS)-2-fluorotetrahydro-1H-pyrrolizin-7a(5H)-yl)methoxy)-4-((3aR,7aR)-hexahydrofuro[3,2-b]pyridin-4(2H)-yl)pyrido[4,3-d]pyrimidin-7-yl)naphthalen-2-ol], the IC50 in experiment [1] (setting [3]) is 0.81 µM; in experiment [2] it was 0.038 µM. Turning to `CCc1c(F)ccc2cc(O)cc(-c3ncc4c(N5CC[C@H](O)[C@H](O)C5)nc(OC[C@@]56CCCN5C[C@H](F)C6)nc4c3F)c12` (relative stereo) [Example 100, rel-(3R,4S)-1-(7-(8-Ethyl-7-fluoro-3-hydroxynaphthalen-1-yl)-8-fluoro-2-(((2R,7aS)-2-fluorotetrahydro-1H-pyrrolizin-7a(5H)-yl)methoxy)pyrido[4,3-d]pyrimidin-4-yl)piperidine-3,4-diol], the IC50 in experiment [1] (setting [3]) turned out to be 3.7 µM; in experiment [2] it was 0.009 µM.

Take `CCc1c(F)ccc2cc(O)cc(-c3ncc4c(N5CC[C@H](O)[C@@H](O)C5)nc(OC[C@@]56CCCN5C[C@H](F)C6)nc4c3F)c12` (relative stereo) [Example 101, rel-(3S,4S)-1-(7-(8-Ethyl-7-fluoro-3-hydroxynaphthalen-1-yl)-8-fluoro-2-(((2R,7aS)-2-fluorotetrahydro-1H-pyrrolizin-7a(5H)-yl)methoxy)pyrido[4,3-d]pyrimidin-4-yl)piperidine-3,4-diol]: the half-maximal inhibitory concentration (IC50) in experiment [1] (setting [3]) is greater than 10 µM; in experiment [2], 0.02 µM.

Turning to `CCc1c(F)ccc2cc(O)cc(-c3ncc4c(N5C[C@H](C)C[C@@H](O)C5)nc(OC[C@@]56CCCN5C[C@H](F)C6)nc4c3F)c12` (relative stereo) [Example 160, rel-(3R,5R)-1-(7-(8-Ethyl-7-fluoro-3-hydroxy-naphthalen-1-yl)-8-fluoro-2-(((2R,7aS)-2-fluorotetrahydro-1H-pyrrolizin-7a(5H)-yl)methoxy)pyrido[4,3-d]pyrimidin-4-yl)-5-methylpiperidin-3-ol], the figures for the half-maximal inhibitory concentration (IC50) in experiment [1] (setting [3]) and in experiment [2] were 0.414 µM and 0.003 µM, respectively.

Regarding `CCc1c(F)ccc2cc(O)cc(-c3ncc4c(N5CC6CC(O)C(C6)C5)nc(OC[C@@]56CCCN5C[C@H](F)C6)nc4c3F)c12` (single isomer, unassigned) [Example 23], the values for the IC50 in experiment [1] (setting [4]) and in experiment [2] were 2.38 µM and 0.031 µM, respectively. Take `CCc1c(F)ccc2cc(O)cc(-c3ncc4c(N5CC6CC(O)C(C6)C5)nc(OC[C@@]56CCCN5C[C@H](F)C6)nc4c3F)c12` (single isomer, unassigned) [Example 24]: the values for the half-inhibitory concentration (IC50) in experiment [1] (setting [4]) and in experiment [2] were 0.014 µM and 0.002 µM, respectively. In the case of `C#Cc1c(F)ccc2cc(O)cc(-c3ncc4c(N5CC6CC(O)C(C6)C5)nc(OC[C@@]56CCCN5C[C@H](F)C6)nc4c3F)c12` (single isomer, unassigned) [Example 27], the IC50 in experiment [1] (setting [4]) worked out at 1.03 µM; in experiment [2], 0.006 µM.

Regarding `C#Cc1c(F)ccc2cc(O)cc(-c3ncc4c(N5CC6CC(O)C(C6)C5)nc(OC[C@@]56CCCN5C[C@H](F)C6)nc4c3F)c12` (single isomer, unassigned) [Example 28], the half-inhibitory concentration (IC50) in experiment [1] (setting [4]) was determined as 0.036 µM; in experiment [2], 0.001 µM.

With `CCc1c(F)ccc2cc(O)cc(-c3cc4nc(OC[C@@]56CCCN5C[C@H](F)C6)nc(N5CCC[C@@](C)(O)C5)c4cn3)c12` [Example 170, (R)-1-(7-(8-Ethyl-7-fluoro-3-hydroxynaphthalen-1-yl)-2-(((2R,7aS)-2-fluorotetrahydro-1H-pyrrolizin-7a(5H)-yl)methoxy)pyrido[4,3-d]pyrimidin-4-yl)-3-methyl-piperidin-3-ol], the IC50 in experiment [1] (setting [3]) is 0.018 µM. `[2H]C([2H])([2H])[C@@]1(O)CCCN(c2nc(OC[C@@]34CCCN3C[C@H](F)C4)nc3c(F)c(-c4cc(O)cc5ccc(F)c(CC)c45)ncc23)C1` [Example 176, (R)-1-(7-(8-Ethyl-7-fluoro-3-hydroxynaphthalen-1-yl)-8-fluoro-2-(((2R,7aS)-2-fluorotetrahydro-1H-pyrrolizin-7a(5H)-yl)methoxy)pyrido[4,3-d]pyrimidin-4-yl)-3-(methyl-d3)piperidin-3-ol]: in experiment [1] (setting [5]), the IC50 is 0.005 µM. On the same count and under the same terms, to `[2H]C([2H])([2H])[C@]1(O)CCCN(c2nc(OC[C@@]34CCCN3C[C@H](F)C4)nc3c(F)c(-c4cc(O)cc5ccc(F)c(CC)c45)ncc23)C1` [Example 177, (S)-1-(7-(8-Ethyl-7-fluoro-3-hydroxynaphthalen-1-yl)-8-fluoro-2-(((2R,7aS)-2-fluorotetrahydro-1H-pyrrolizin-7a(5H)-yl)methoxy)pyrido[4,3-d]pyrimidin-4-yl)-3-(methyl-d3)piperidin-3-ol] belongs 0.109 µM. As for `CCc1c(F)ccc2cc(O)cc(-c3ncc4c(N5CCC[C@@](C)(O)C5)nc(OC[C@]56CCCN5C[C@@H](F)C6)nc4c3F)c12` [Example 178, (R)-1-(7-(8-Ethyl-7-fluoro-3-hydroxynaphthalen-1-yl)-8-fluoro-2-(((2S,7aR)-2-fluorotetrahydro-1H-pyrrolizin-7a(5H)-yl)methoxy)pyrido[4,3-d]pyrimidin-4-yl)-3-methylpiperidin-3-ol bis(2,2,2-trifluoroacetate)], the IC50 in experiment [1] (setting [5]) came out at 0.008 µM. Take `CCc1c(F)ccc2cc(O)cc(-c3ncc4c(N5CCC[C@@](C)(O)C5)nc(OCC5(CN(C)C)CC5)nc4c3F)c12` [Example 180, (R)-1-(2-((1-((Dimethylamino)methyl)cyclopropyl)methoxy)-7-(8-ethyl-7-fluoro-3-hydroxynaphthalen-1-yl)-8-fluoropyrido[4,3-d]pyrimidin-4-yl)-3-methylpiperidin-3-ol]: in experiment [1] (setting [3]), the half-inhibitory concentration (IC50) came out at 0.012 µM.

The values are drawn from US20250034167A1, “HETEROCYCLIC COMPOUNDS AND METHODS OF USE” (AMGEN INC., priority 2021, published 2025).
